Values quoted from earlier work in patent US10463613B2, “Cromolyn compositions for treatment of chronic cough due to idiopathic pulmonary fibrosis” (Respivant Sciences GmbH, priority 2016, dated 2019).
Like-named read-outs stand apart in the source and are kept apart here.

Settings: in vivo

SMILES: O=C([O-])c1cc(=O)c2c(OCC(O)COc3cccc4oc(C(=O)O)cc(=O)c34)cccc2o1.[Na+] [cromolyn sodium, disodium 5,5′-(2-hydroxypropane-1,3-diyl)bis(oxy)bis(4-oxo-4H-chromene-2-carboxylate)]
- Bioavailability of available formulations: approximately 1%
- Oral bioavailability: ~1%
- Oral bioavailability (listed as cromolyn): about 1%
